Type in all cases: in vivo, human
For data set [1], the system named is HBV. In words: Completed clinical studies (YP39364 Part 1 and 2, YP39406, YP40218), four-week treatment, PD markers. The note with it: four-week treatment with Compound (I). From the text:
(§1) Three clinical studies (Part 1 and 2 of YP39364 (NCT02952924), YP39406 (NCT03570658), and YP40218 (NCT03717064)) have been completed to characterize the safety, tolerability, pharmacokinetics (PK) and pharmacodynamics (PD) of Compound (I) in both healthy volunteers and CHB patients. […] Thus, there is an unmet medical need for a novel method of treatment with Compound (I) that could achieve a higher rate of functional cure with a finite treatment duration and excellent tolerability.

Data set [2] in a line: Safety and tolerability in chronic hepatitis B patients.
Source text: as §1
In this invention, methods of Compound (I) monotherapy and Compound (I) in combination with other anti-HBV agents for 12-144 weeks were developed. […] Comparing with current NUC treatment, the current finite treatment methods of this invention minimize the risk of drug resistance and decrease adverse effects of NUC treatment (e.g. the risk of renal injury, bone density loss and creatine kinase elevation, etc).

Data set [3] concerns HBV. In words: Treatment methods of the invention, Compound (I) monotherapy or combination for 12-144 weeks in patients infected with HBV. From the text:
Study population: patients infected with HBV (Terrault NA, Lok ASF, McMahon BJ, et al. Update on prevention, diagnosis, and treatment of chronic hepatitis B: AASLD 2018 hepatitis B guidance. Hepatology. 2018; 67:1560-1599.European Association for the Study of the Liver. EASL 2017 Clinical Practice Guidelines on the management of hepatitis B virus infection. J Hepatol. 2017; 67:370-398.).
General Methods: To explore the effects of Compound (I) on HBsAg loss or decline, Compound (I) is administered following the dose regimen listed in Table 1. The primary measure is the quantitative HBsAg decline or HBsAg loss (<0.05 IU/mL, measured by Elecsys® HBsAg II (Roche)®) at 24 weeks post treatment.

The mark [4] stands for this setting: immune tolerant patients (HBV DNA levels elevated, ALT levels normal).

`CCOC(=O)C1=C(CN2CCN3C(=O)N(CC(C)(C)C(=O)O)C[C@@H]3C2)NC(c2nccs2)=N[C@H]1c1cccc(F)c1C` [Compound (I)]: in the data set on HBV [1], the “HBV DNA (short-term PD marker)” value is “robust decline”, the “HBV RNA (short-term PD marker)” value was “robust decline” and the HBsAg decline entry is listed as “significant decline of HBsAg has not been observed”. The Safety and tolerability result in data set [2] was “safe and well tolerated”. The “hepatitis B surface antigen (HBsAg) decline or loss” value with HBV [3] (Compound (I) in combination with other anti-HBV agents for 12-144 weeks) is “significant hepatitis B surface antigen (HBsAg) decline or loss”. Moreover, in the data set with HBV [3] (setting [4]), the “HBV DNA decline” value was “robust HBV DNA and HBV RNA decline”; the “HBV RNA decline” value was “robust HBV DNA and HBV RNA decline”.

For the origin of these results see patent publication US20220370447A1, “METHOD OF TREATING HBV INFECTION USING A CORE PROTEIN ALLOSTERIC MODULATOR” (Hoffmann-La Roche Inc., priority 2019, published 2022).
